According to US8143259B2, “Cold menthol receptor antagonists” (Janssen Pharmaceutica, NV, priority 2008, dated 2012):
“And” between values parts separate entries of the source, which are not always exact repeats. Equal entries are not always repeated.

Target: T1, canine TRPM8 (Canis lupus familiaris, UniProt Q1A7N1)
T1 construct: expressed in transfected cells
Assay: In Vitro Canine TRPM8 Functional Assay (Ca2+ fluorescence, icilin activation)
Assay type: cell-based
Settings: for inhibition at 0.5 µM: HEK293, 0.5 μM compound; for inhibition at 0.5 µM / % Inh @ 0.2 μM / inhibition at 0.2 µM / % Inh @ 0.5 μM / inhibition at 1 µM / % Inh @ 1 μM: canine TRPM8 HEK293, icilin; for IC50: HEK293 cells stably expressing canine TRPM8, icilin activation, Ca2+ fluorescence; for % Inh @ 0.2 μM: 0.2 μM compound; for inhibition at 0.2 µM: HEK293, 0.2 μM compound; for % Inh @ 0.5 μM: 0.5 μM compound; for inhibition at 1 µM: HEK293, 1 μM compound; for % Inh @ 1 μM: 1 μM compound
Outline: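 HEK293 cells stably expressing canine TRPM8, loaded with Calcium 3 dye; compounds added 5 min before icilin at a concentration giving ~80% maximal response. Peak icilin-evoked Ca2+ fluorescence, basal-subtracted and normalised to maximal response, fitted by sigmoidal nonlinear regression; quadruplicate wells.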

T1 sequence (Q1A7N1 1-1104): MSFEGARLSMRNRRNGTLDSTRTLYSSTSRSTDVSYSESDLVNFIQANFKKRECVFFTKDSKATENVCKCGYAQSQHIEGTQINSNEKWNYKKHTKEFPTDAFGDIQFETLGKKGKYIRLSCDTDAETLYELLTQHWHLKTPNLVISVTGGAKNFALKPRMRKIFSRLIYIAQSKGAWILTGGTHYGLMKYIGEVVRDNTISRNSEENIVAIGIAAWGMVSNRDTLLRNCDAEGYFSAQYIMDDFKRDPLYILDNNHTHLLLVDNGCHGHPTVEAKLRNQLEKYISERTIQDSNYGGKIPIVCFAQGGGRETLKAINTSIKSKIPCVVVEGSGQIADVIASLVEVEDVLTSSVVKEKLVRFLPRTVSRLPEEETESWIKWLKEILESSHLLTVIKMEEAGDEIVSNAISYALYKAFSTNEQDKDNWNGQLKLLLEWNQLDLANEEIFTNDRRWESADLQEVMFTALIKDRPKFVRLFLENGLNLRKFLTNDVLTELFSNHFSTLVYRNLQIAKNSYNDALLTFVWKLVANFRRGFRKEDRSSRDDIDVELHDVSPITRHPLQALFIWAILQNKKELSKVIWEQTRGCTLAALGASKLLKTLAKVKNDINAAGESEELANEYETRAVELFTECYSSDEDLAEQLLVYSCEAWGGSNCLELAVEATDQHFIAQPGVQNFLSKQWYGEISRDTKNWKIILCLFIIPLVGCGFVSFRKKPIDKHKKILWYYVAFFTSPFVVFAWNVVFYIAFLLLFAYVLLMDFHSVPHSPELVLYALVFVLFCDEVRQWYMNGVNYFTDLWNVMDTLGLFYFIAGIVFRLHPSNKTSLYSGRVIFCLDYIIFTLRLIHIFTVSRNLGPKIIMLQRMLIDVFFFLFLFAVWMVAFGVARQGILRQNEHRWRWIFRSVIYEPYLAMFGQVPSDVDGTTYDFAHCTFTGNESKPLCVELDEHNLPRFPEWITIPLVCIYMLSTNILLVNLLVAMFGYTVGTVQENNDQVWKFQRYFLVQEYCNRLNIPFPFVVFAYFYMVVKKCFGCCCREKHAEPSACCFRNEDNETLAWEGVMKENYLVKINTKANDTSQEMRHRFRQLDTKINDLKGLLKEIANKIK

Structure (SMILES)	IC50	inhibition at 0.2 µM [%]	other results
COc1ccccc1C1CCCN1C(=O)C(Nc1ccccc1F)c1cnc2ccccc2c1 (single isomer, unassigned) [Cpd 278]	31 nM and 36 nM	–	% Inh @ 0.2 μM (0.2 µM): 94% and 101%
CC(=O)N(c1ccccc1F)[C@H](C(=O)N1CCC[C@H]1c1ccccc1F)c1ccc(C(F)(F)F)cc1 [Cpd 318, N-(2-Fluoro-phenyl)-N-[2-[(2S)-2-(2-fluoro-phenyl)-pyrrolidin-1-yl]-2-oxo-(1S)-1-(4-trifluoromethyl-phenyl)-ethyl]-acetamide]	–	47	–
O=C(C(Nc1ccccc1)c1ccc(C(F)(F)F)cc1)N1CCCC1c1ccccc1Cl (single isomer, unassigned) [Cpd 22]	378 nM	–	% Inh @ 0.5 μM (0.5 µM): 102.36%
O=C(C(c1ccc(C(F)(F)F)cc1)N1CCc2ccccc21)N1Cc2ccccc2C1 (stereo not shown) [Cpd 230]	105 nM	–	–
O=C(C(Nc1ccccc1F)c1ccc(-c2ccccn2)cc1)N1CCCC1c1ccccc1F (single isomer, unassigned) [Cpd 296]	4 nM and 9 nM	88	% Inh @ 0.2 μM (0.2 µM): 96%
O=C(C(Nc1cccc(Cl)c1)c1ccc(C(F)(F)F)cc1)N1CCc2ccccc21 (racemic) [Cpd 38]	–	–	% Inh @ 0.5 μM: 63.009%
O=C(C(Nc1ccccc1F)c1ccc(-c2ccccc2)nc1)N1CCCC1c1ccccc1F (single isomer, unassigned) [Cpd 308]	–	–	% Inh @ 0.2 μM: 11%
O=C(C(Nc1ccccc1)c1ccc(C(F)(F)F)cc1)N1CCc2ccccc21 (stereo not shown) [Cpd 33]	202 nM	–	inhibition at 0.5 µM: 96.5%
O=C(C(Oc1ccccc1F)c1ccc(C(F)(F)F)cc1)N1CCCC1c1ccccc1F (stereo not shown) [Cpd 263, 2-(2-Fluoro-phenoxy)-1-[2-(2-fluoro-phenyl)-pyrrolidin-1-yl]-2-(4-trifluoromethyl-phenyl)-ethanone]	110 nM	84	–
O=C(C(Nc1ccccc1)c1ccc(C(F)(F)F)cc1)N1CCCC1c1ccccc1Cl (single isomer, unassigned) [Cpd 61]	168 nM	–	% Inh @ 0.5 μM (0.5 µM): 103.2%
CC(C)(C)c1ccc(C(Nc2ccccc2)C(=O)N2CCCC2Cc2ccccc2Cl)cc1 (mixture of isomers) [Cpd 6]	–	–	% Inh @ 1 μM: 45.171%
Cc1c(C(Cc2ccccc2F)C(=O)N2CCCC2c2ccccc2F)sc2ccccc12 (mixture of isomers) [Cpd 177]	–	–	% Inh @ 0.2 μM: 63%
COC(=O)[C@@H]1CC[C@H](c2ccccc2)N1C(=O)C(Nc1c(F)cccc1F)c1ccc(Br)cc1 (single isomer, unassigned) [Cpd 205]	–	–	% Inh @ 0.2 μM (0.2 µM): 62%
O=C(C(Nc1ccccc1Cl)c1ccc(C(F)(F)F)cc1)N1CCc2ccccc21 (racemic) [Cpd 37]	–	–	% Inh @ 0.5 μM: 49.878%
O=C(C(Nc1ccccc1)c1ccc(C(F)(F)F)cc1)N1CCCC1c1ccccc1F (single isomer, unassigned) [Cpd 47]	200 nM	–	% Inh @ 0.5 μM (0.5 µM): 99.791%
O=C(C(Nc1ccc(Cl)cc1)c1ccc(C(F)(F)F)cc1)N1CCc2ccccc21 (racemic) [Cpd 39]	–	–	% Inh @ 0.5 μM: 73.007%
O=C(C(Nc1ccccc1F)c1ccc(C(F)(F)F)cc1)N1CCCC1c1cccc(F)c1 (single isomer, unassigned) [Cpd 185]	150 nM	82	–
COc1ccc(NC(C(=O)N2CCCC2c2ccccc2F)c2ccc(Cl)cc2)cc1 (stereo not shown) [Cpd 137]	101 nM	–	inhibition at 0.5 µM: 81%
O=C(C(NC1CCCCC1)c1ccc(C(F)(F)F)cc1)N1CCc2ccccc21 (racemic) [Cpd 41]	–	–	% Inh @ 0.5 μM: 70.995%
CC(C)(C)c1ccc(C(Nc2ccccc2)C(=O)N2CCCC2c2ccc(Cl)cc2)cc1 (single isomer, unassigned) [Cpd 367]	149 ± 51 nM	–	% Inh @ 1 μM (1 µM): 5.8157%
O=C(C(Nc1ccc(F)cc1)c1ccc(Cl)cc1)N1Cc2ccccc2C1 (stereo not shown) [Cpd 120]	130 nM	–	inhibition at 0.5 µM: 95%
O=C(C(Nc1c(F)cccc1F)c1ccc(Br)cc1)N1CCCC1c1ccccc1F (single isomer, unassigned) [Cpd 161]	63 nM and 36 nM	98	inhibition at 0.5 µM: 93%
O=C(C(Nc1ccccc1F)c1ccc(Br)cc1)N1CCCC1c1cccnc1 (racemic) [Cpd 269]	–	–	% Inh @ 0.2 μM: 47%
O=C(C(c1ccc(C(F)(F)F)cc1)N1CCCc2ccccc21)N1Cc2ccccc2C1 (stereo not shown) [Cpd 363]	134 nM	72	–
O=C(C(Nc1ccccc1)c1cccnc1)N1CCCC1c1ccccc1F (stereo not shown) [Cpd 214, 1-[2-(2-Fluoro-phenyl)-pyrrolidin-1-yl]-2-phenylamino-2-pyridin-3-yl-ethanone]	–	58	–

More lines, in order of falling IC50, values ahead:

IC50	inhibition at 0.2 µM [%]	Structure (SMILES)	other results
99.5 nM	–	CC(C)(C)c1ccc(C(Nc2ccccc2)C(=O)N2CCCC2c2cccnc2)cc1 (stereo not shown) [Cpd 5]	inhibition at 1 µM: 102%
91.7 nM	–	O=C(C(Nc1ccccc1)c1ccc(C(F)(F)F)cc1)N1CCCC1c1ccncc1 (stereo not shown) [Cpd 28]	inhibition at 0.5 µM: 103%
78.3 nM	–	O=C(C(Nc1ccccc1)c1ccc(C(F)(F)F)cc1)N1CCCC1c1nccs1 (stereo not shown) [Cpd 49]	inhibition at 0.5 µM: 102%
78 nM	–	N#Cc1ccc(C(Nc2ccccc2F)C(=O)N2CCCC2c2ccccc2Cl)cc1 (stereo not shown) [Cpd 62]	inhibition at 0.5 µM: 103%
68 nM	89	O=C(C(Nc1c(F)cccc1F)c1ccc(CO)cc1)N1CCC[C@H]1c1ccccc1F (stereo partly drawn) [Cpd 219, 2-(2,6-Difluoro-phenylamino)-1-[(2S)-2-(2-fluoro-phenyl)-pyrrolidin-1-yl]-2-(4-hydroxymethyl-phenyl)-ethanone]	–
65.8 nM	89	O=C(C(Cc1cccc(F)c1F)c1ccc(C(F)(F)F)cc1)N1CCCC1c1ccccc1F (stereo not shown) [Cpd 253]	–
60.3 nM	–	O=C(C(Nc1ccccc1)c1ccc(C(F)(F)F)cc1)N1CCCC1c1ccccc1 (stereo not shown) [Cpd 17]	inhibition at 1 µM: 98.2%
46 nM	98	O=C(C(Nc1c(F)cccc1F)c1ccc(Cl)cc1)N1CCCc2ccccc21 (stereo not shown) [Cpd 366]	–
40 nM	–	O=C(O)c1cccc(C2CCCN2C(=O)C(Nc2ccccc2F)c2ccc(C(F)(F)F)cc2)c1 (mixture of isomers) [Cpd 223]	% Inh @ 0.2 μM: 97%
38 nM	96	Cc1c(C(Cc2ccccc2F)C(=O)N2Cc3ccccc3C2)sc2ccccc12 (stereo not shown) [Cpd 179]	–
35 nM	–	O=C(C(Nc1cccc(F)c1F)c1ccc(Cl)cc1)N1CCCC1c1ccccc1 (stereo not shown) [Cpd 168]	inhibition at 0.5 µM: 97%
33.3 nM	–	COc1ccccc1C1CCCN1C(=O)C(Nc1ccccc1)c1ccc(C(F)(F)F)cc1 (stereo not shown) [Cpd 43]	inhibition at 0.5 µM: 101%
32 nM	99	O=C(C(Cc1ccccc1F)c1ccc(C(F)(F)F)cc1)N1CCCC1c1ccccc1F (stereo not shown) [Cpd 201, 3-(2-Fluoro-phenyl)-1-[2-(2-fluoro-phenyl)-pyrrolidin-1-yl]-2-(4-trifluoromethyl-phenyl)-propan-1-one]	–
31.7 nM	–	COc1ccccc1C1CCCN1C(=O)C(Nc1ccc(F)cc1)c1ccc(Cl)cc1 (stereo not shown) [Cpd 118]	inhibition at 0.5 µM: 100%
30 nM	94	O=C(C(Nc1ccccc1F)c1ccc(Br)cc1)N1CCCc2ccccc21 (stereo not shown) [Cpd 365]	–
29.6 nM	102	COc1ccccc1C1CCCN1C(=O)C(Nc1cc(F)ccc1F)c1ccc(Cl)cc1 (stereo not shown) [Cpd 172]	–
23 nM	–	O=C(C(Nc1ccccc1)c1ccc(Br)cc1)N1CCCC1c1ccccc1 (stereo not shown) [Cpd 70]	inhibition at 0.5 µM: 103%
21 nM	94	O=C(C(c1ccc(C(F)(F)F)cc1)N1CCc2ccccc21)N1CCC[C@H]1c1cccnc1 (mixture of isomers) [Cpd 275]	–
20 nM	–	O=C(C(Nc1ccc(F)cc1)c1ccc(C(F)(F)F)cc1)N1CCCC1c1ccccc1 (single isomer, unassigned) [Cpd 75]	inhibition at 0.5 µM: 98%
17.2 nM	–	O=C(C(Nc1ccccc1)c1ccc(C(F)(F)F)cc1)N1CCCC1c1ccccc1Cl (single isomer, unassigned) [Cpd 23]	% Inh @ 0.5 μM (0.5 µM): 103.39%
13 nM	–	O=C(C(Nc1ccccc1F)c1cc2ccccc2s1)N1CCCC1c1ccccn1 (single isomer, unassigned) [Cpd 331]	% Inh @ 0.2 μM: 101%
13 nM	–	COC(=O)c1cc(C(Nc2ccccc2F)C(=O)N2CCCC2c2ccccc2F)ccc1Cl (mixture of isomers) [Cpd 309]	% Inh @ 0.2 μM: 102%
10 nM	99	CCOC(=O)c1ccc(C(Nc2c(F)cccc2F)C(=O)N2CCC[C@H]2c2ccccc2F)cc1 (stereo partly drawn) [Cpd 183, 4-{1-(2,6-Difluoro-phenylamino)-2-[(2S)-2-(2-fluoro-phenyl)-pyrrolidin-1-yl]-2-oxo-ethyl}-benzoic acid ethyl ester]	–
8 nM	94	O=C(C(Nc1ccccc1F)c1cc2ccccc2s1)N1CCCC1c1ccccn1 (stereo not shown) [Cpd 321]	–
7 nM	101	O=C(C(Nc1ccccc1F)c1ccc(-c2ccccc2)nc1)N1CCC[C@H]1c1ccccc1F (mixture of isomers) [Cpd 306]	% Inh @ 0.2 μM (0.2 µM): 102%
6 nM	–	O=C(C(Nc1ccccc1F)c1cnc2ccccc2c1)N1CCCC1c1ccccc1Cl (stereo not shown) [Cpd 373]	–
5.45 nM	–	O=C(C(Nc1c(F)cccc1F)c1ccc(Br)cc1)N1CCCC1c1ccccc1F (single isomer, unassigned) [Cpd 162]	% Inh @ 0.2 μM (0.2 µM): 100%; % Inh @ 0.5 μM (0.5 µM): 99%
2 nM	100	Nc1ccc(C2CCCN2C(=O)C(Nc2ccccc2F)c2ccc(C(F)(F)F)cc2)cc1 (stereo not shown) [Cpd 266]	–
